Earlier results as cited in patent US20090105195A1, “COMPOSITION COMPRISING MICROBICIDAL ACTIVE INGREDIENTS” (priority 2007, published 2009).

Key:
Conditions in all cases: at low amounts, such as 0.025%
[1] = test system: Human Papilloma Virus (HPV)
Herpes Simplex Virus = test system: Herpes Simplex Virus
[2] = test system: Human Immunodeficiency Virus

CCCCCCCCCCCCOS(=O)(=O)[O-].[Na+] [SLS, sodium lauryl sulfate]
complete inactivation: inactivation of Human Papilloma Virus (HPV) [1] | inactivation of Herpes Simplex Virus (Herpes Simplex Virus) | inactivation of Human Immunodeficiency Virus [2]
